# From article PMC11078746 (Nature, 2024)
# How the values were obtained:
# [1] = biological target: T1, BLM (Homo sapiens, UniProt P54132); assay: RecQ selectivity ATPase assay; type: biochemical
# T1 construct: human BLM-D1D2RH (UniProt P54132: Lys640–Gly1298); His tag (N, cleaved yes); made in house; host or cells: E. coli BL21(DE3)
# Experimental: (§1) DNA sequence allowing expression of human BLM-D1D2RH (UniProt P54132: Lys640–Gly1298) fused at the amino-terminal end to His tag followed by TEV-cleavage site, was inserted into a pET-derived vector. Protein expression was performed in BL21(DE3) cells after IPTG induction. Cells were collected and resuspended in lysis buffer (50 mM NaH2PO4, 300 mM NaCl, 1 mM TCEP, 20 mM imidazole, pH 8.0) supplemented with 2 mM MgCl2, benzonase and 0.5 mM AEBSF. Cells were lysed with an Emulsiflex C3 homogenizer. After ultracentrifugation, the lysate was loaded onto a HisTrap HP column. Bound protein was eluted with an imidazole gradient in lysis buffer. The amino-terminal tag was cleaved with TEV protease. Cleaved protein was loaded on Resource S ion-exchange column and eluted with a NaCl gradient in IEX buffer (20 mM Tris, 1 mM TCEP, 10% glycerol, 20 mM NaCl, pH 7.4). As a final step, BLM-D1D2RH protein was concentrated and loaded onto the Superdex 75 gel-filtration column pre-equilibrated with SEC buffer (50 mM Tris, 150 mM NaCl, 10% glycerol, pH 7.4). Eluted target protein was concentrated and frozen on dry ice. An analogous procedure was used for the expression and purification of human RecQ1-D1D2 (UniProt: P46063, Asp62–Ser482) and Human RecQ5-D1D2 (UniProt: O94762, Asp11–Trp453) proteins.
# (§2) We used an ADP-Glo assay kit (Promega) to monitor ATP hydrolysis. A 45-oligonucleotide with the following sequence: […], referred to as FLAP26, as described previously[45] was purchased from IDT (Integrated DNA Technologies) and used as a DNA substrate. […] The reaction was started by addition of 2.5 μl of ssDNA substrate at 0.4 nM and incubated for 30 min at room temperature. The reaction was stopped with the addition of 5 μl of the first ADP-Glo reagent and incubated for 1 h to remove the excess amount of ATP. Then, 10 μl of ATP detection reagent was added and incubated for an additional hour before reading. The luminescence output was recorded using the Pherastar reader, with a 5 min delay before reading. Each concentration of compounds was tested in duplicates in the assay plate. The compound potency (IC50 value) was determined using custom software (Novartis Helios software application) with a four-parameter sigmoid Hill-curve model. After normalization of activity values for the wells to percentage inhibition (percentage inhibition = [(high control activity − sample activity)/(high control activity − low control activity)] × 100), IC50 fitting was performed from the duplicate determinations present on each plate.
# (§3) The same ATPase assay protocol was used with the three other RecQ protein constructs to assess the selectivity over WRN. Time-course experiments were performed to determine the best enzymatic assay conditions for each RecQ protein. The experiments were run as described above with 10 nM RecQ1 protein construct with 10 nM ssDNA substrate, 2 nM BLM protein construct with 0.2 nM ssDNA substrate and 0.5 nM RecQ5 protein construct with 2 nM ssDNA substrate, respectively.
# [2] = biological target: T2, RecQ1 (Homo sapiens, UniProt P46063); assay: RecQ selectivity ATPase assay; type: biochemical
# T2 construct: human RecQ1-D1D2 (UniProt: P46063, Asp62–Ser482); His tag (N); made in house; host or cells: E. coli BL21(DE3), by the 'analogous procedure'
# Experimental: as §1, §2, §3
# [3] = biological target: T3, RecQ5 (Homo sapiens, UniProt O94762); assay: RecQ selectivity ATPase assay; type: biochemical
# T3 construct: Human RecQ5-D1D2 (UniProt: O94762, Asp11–Trp453); His tag (N); made in house; host or cells: E. coli BL21(DE3), by the 'analogous procedure'
# Experimental: as §1, §2, §3
# [4] = MDCK LE permeability; type: in vitro ADME, canine; settings: dog
# [5] = biological target: hERG (Homo sapiens, UniProt Q12809); assay: hERG binding (patch clamp)
# [6] = biological target: CYP3A4 (Homo sapiens, UniProt P08684); assay: CYP3A4 TDI; type: in vitro ADME
# [7] = test system: MSI cancer cells; assay: Clonogenic assay, 10-to-14-day; type: cell-based; settings: Homo sapiens, 10-to-14-day clonogenic assay
# [8] = test system: LS411N; assay: CFA 10-14 day clonogenic assay; type: cell-based; settings: Homo sapiens, LS-411N
# [9] = test system: CW2; assay: CFA 10-14 day clonogenic assay; type: cell-based; settings: Homo sapiens, CW-2
# [10] = test system: IM95; assay: CFA 10-14 day clonogenic assay; type: cell-based; settings: Homo sapiens
# [11] = test system: TOV21G; assay: CFA 10-14 day clonogenic assay; type: cell-based; settings: Homo sapiens
# [12] = test system: HEC1B; assay: CFA 10-14 day clonogenic assay; type: cell-based; settings: Homo sapiens, HEC-1B
# [13] = test system: RL952; assay: 4 day proliferation assay (CellTiter-Glo); settings: Homo sapiens, RL95-2, 96 h, read-out: 4 day assay GI50
# [14] = test system: SNUC4; assay: 4 day proliferation assay (CellTiter-Glo); settings: Homo sapiens, SNU-C4, 96 h, read-out: 4 day assay GI50
# [15] = test system: Ishikawa; assay: 4 day proliferation assay (CellTiter-Glo); settings: Homo sapiens, 96 h, read-out: 4 day assay GI50
# [16] = test system: HEC59; assay: 4 day proliferation assay (CellTiter-Glo); settings: Homo sapiens, 96 h, read-out: 4 day assay GI50
# [17] = test system: RKO; assay: 4 day proliferation assay (CellTiter-Glo); settings: Homo sapiens, 96 h, read-out: 4 day assay GI50
# [18] = test system: JHUEM2; assay: 4 day proliferation assay (CellTiter-Glo); settings: Homo sapiens, 96 h, read-out: 4 day assay GI50
# [19] = test system: HEC1A; assay: 4 day proliferation assay (CellTiter-Glo); settings: Homo sapiens, HEC-1-A, 96 h, read-out: 4 day assay GI50
# [20] = test system: HEC1B; assay: 4 day proliferation assay (CellTiter-Glo); settings: Homo sapiens, HEC-1B, 96 h, read-out: 4 day assay GI50
# hERG, sequence (Q12809 whole entry): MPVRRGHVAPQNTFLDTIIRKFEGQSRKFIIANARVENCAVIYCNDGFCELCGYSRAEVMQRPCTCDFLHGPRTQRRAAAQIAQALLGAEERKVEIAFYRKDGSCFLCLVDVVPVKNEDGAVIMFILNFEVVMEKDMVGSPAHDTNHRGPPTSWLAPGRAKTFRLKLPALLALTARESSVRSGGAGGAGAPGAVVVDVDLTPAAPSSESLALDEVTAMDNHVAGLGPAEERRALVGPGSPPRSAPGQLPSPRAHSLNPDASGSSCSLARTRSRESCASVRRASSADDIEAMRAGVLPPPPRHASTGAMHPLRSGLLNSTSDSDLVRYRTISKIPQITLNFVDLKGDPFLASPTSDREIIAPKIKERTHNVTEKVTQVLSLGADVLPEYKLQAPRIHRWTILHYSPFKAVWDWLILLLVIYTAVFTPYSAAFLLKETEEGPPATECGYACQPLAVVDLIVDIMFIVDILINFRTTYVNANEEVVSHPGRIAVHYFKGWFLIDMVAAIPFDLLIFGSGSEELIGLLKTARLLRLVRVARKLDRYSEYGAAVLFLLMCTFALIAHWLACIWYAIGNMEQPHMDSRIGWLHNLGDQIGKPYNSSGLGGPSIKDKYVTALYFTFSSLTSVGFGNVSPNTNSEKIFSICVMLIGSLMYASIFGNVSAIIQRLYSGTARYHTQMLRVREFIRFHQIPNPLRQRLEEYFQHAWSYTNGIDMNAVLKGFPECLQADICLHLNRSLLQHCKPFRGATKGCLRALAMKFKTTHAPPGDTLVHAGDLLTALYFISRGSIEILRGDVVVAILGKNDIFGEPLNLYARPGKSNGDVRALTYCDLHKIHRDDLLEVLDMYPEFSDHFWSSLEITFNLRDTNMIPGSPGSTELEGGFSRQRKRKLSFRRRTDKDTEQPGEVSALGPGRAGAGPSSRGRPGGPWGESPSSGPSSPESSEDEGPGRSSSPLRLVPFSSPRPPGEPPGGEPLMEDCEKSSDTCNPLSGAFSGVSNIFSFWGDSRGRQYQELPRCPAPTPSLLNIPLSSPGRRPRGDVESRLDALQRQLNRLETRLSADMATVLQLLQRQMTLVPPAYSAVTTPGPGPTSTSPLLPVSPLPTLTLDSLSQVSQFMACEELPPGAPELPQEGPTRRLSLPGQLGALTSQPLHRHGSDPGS
# CYP3A4, sequence (P08684 whole entry, species assumed): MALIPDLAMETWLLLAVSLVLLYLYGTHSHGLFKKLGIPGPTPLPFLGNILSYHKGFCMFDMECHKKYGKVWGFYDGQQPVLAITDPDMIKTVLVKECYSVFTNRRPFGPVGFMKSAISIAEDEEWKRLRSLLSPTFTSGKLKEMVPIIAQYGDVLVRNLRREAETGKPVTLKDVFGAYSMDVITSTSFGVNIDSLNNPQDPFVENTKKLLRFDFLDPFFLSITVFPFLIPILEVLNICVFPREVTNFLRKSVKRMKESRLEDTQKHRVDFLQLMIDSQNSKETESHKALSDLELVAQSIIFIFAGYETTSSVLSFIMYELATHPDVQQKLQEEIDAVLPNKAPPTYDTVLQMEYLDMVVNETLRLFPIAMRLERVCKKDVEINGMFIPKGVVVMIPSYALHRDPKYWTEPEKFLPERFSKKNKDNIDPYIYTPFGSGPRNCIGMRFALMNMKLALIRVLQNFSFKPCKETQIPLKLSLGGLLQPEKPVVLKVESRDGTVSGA
# T3 sequence (O94762 11-453): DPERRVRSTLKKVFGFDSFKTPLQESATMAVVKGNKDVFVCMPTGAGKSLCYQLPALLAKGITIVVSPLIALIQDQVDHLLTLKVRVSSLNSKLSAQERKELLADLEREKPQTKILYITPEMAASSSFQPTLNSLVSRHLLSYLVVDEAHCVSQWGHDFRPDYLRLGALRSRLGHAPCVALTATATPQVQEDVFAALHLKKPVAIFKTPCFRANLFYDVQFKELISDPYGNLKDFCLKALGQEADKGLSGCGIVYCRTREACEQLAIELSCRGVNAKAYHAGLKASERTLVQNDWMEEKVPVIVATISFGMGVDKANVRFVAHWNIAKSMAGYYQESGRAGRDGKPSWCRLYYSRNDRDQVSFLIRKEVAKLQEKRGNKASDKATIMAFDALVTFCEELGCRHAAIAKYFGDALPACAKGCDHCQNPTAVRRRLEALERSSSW
# T2 sequence (P46063 62-482): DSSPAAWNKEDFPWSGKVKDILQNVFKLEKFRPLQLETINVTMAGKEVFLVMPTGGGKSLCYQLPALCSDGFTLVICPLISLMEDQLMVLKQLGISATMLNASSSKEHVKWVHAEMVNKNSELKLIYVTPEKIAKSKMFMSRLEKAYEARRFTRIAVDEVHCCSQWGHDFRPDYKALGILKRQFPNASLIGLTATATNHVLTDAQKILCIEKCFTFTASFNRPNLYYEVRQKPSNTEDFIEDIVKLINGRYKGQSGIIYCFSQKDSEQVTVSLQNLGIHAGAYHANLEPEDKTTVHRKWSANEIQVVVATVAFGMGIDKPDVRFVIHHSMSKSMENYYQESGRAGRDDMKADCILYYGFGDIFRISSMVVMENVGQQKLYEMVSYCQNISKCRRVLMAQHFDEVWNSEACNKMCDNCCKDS
# T1 sequence (P54132 640-1298): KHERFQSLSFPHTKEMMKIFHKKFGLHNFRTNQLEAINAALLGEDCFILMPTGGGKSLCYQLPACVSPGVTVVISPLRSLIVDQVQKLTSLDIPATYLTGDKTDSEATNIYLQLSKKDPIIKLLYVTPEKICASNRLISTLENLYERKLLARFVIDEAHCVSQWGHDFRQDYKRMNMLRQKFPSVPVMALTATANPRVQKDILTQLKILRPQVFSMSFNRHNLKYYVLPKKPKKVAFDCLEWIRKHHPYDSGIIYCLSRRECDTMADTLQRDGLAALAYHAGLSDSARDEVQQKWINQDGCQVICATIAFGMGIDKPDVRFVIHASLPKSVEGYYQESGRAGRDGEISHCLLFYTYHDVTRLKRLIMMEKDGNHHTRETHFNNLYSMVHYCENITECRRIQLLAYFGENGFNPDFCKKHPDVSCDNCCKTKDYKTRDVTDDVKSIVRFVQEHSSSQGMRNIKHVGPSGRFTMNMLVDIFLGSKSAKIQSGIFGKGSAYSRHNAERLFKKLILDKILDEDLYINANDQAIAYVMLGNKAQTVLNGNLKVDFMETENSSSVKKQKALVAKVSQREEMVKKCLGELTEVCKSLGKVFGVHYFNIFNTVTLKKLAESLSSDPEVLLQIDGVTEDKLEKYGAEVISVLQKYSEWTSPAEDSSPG
smiles,measurement,setting,value
CCc1c(N2CCN(C(=O)c3ncnc(C)c3O)CC2)c(=O)n2nc(C3=CCOCC3)nc2n1CC(=O)Nc1ccc(C(F)(F)F)cc1Cl [HRO761],IC50,[1],> 100000 nM
same,IC50,[2],> 100000 nM
same,IC50,[3],> 100000 nM
same,Papp A→B,[4]; A-B,30 ×10⁻⁶ cm/s
same,Papp,[4]; Fig. 1b,31 ×10⁻⁶ cm/s
same,IC50,[5],> 30000 nM
same,CYP3A4 TDI,[6],No TDI
same,GI50,[7],50 to 1000 nM
same,GI50,[8],30 nM
same,GI50,[9],68 nM
same,GI50,[10],255 nM
same,GI50,[11],1310 nM
same,GI50,[12],≥ 10000 nM
same,GI50,[13],144 nM
same,GI50,[14],145 nM
same,GI50,[15],228 nM
same,GI50,[16],≥ 10000 nM
same,GI50,[17],2910 nM
same,GI50,[18],≥ 10000 nM
same,GI50,[19],≥ 10000 nM
same,GI50,[20],≥ 10000 nM
